Experimental data published in patent US20070116829A1, “Pharmaceutical Composition with High-Potency Sweetener” (THE COCA-COLA COMPANY, priority 2005, published 2007).

Columns and labels:
[1] = type: physicochemical
Protocol: A solution of rebaudioside A (>97% pure by HPLC) was prepared in double distilled water (12.5 gm in 50 mL, 25% concentration) by stirring the mixture at 40° C. for 5 minutes. An amorphous form of rebaudioside A was formed by immediately using the clear solution for spray drying with the Lab-Plant spray drier SD-04 instrument (Lab-Plant Ltd., West Yorkshire, U.K.). The solution was fed through the feed pump into the nozzle atomizer which atomized it into a spray of droplets with the help of a constant flow of nitrogen/air. […] This dry powder (11-12 g, H2O 6.74%) was discharged continuously from the drying chamber and was collected in a bottle.

[2] = Rate of dissolution in H2O at 25° C. of rebaudioside A polymorph and amorphous forms; type: physicochemical

| solubility in water at room temperature [1] | Rate of dissolution in H2O at 25° C. (in words) [2] | Rate of dissolution in H2O at 25° C. ([2]; per 5 minutes) | Rate of dissolution in H2O at 25° C. ([2]; per 60 minutes) | SMILES |
| --- | --- | --- | --- | --- |
| > 35.0% | High | (>35.0%/5 %/5 minutes | – | C=C1C[C@@]23CC[C@H]4[C@@](C)(CCC[C@@]4(C)C(=O)O[C@@H]4O[C@H](CO)[C@@H](O)[C@H](O)[C@H]4O)[C@@H]2CC[C@]1(O[C@@H]1O[C@H](CO)[C@@H](O)[C@H](O[C@@H]2O[C@H](CO)[C@@H](O)[C@H](O)[C@H]2O)[C@H]1O[C@@H]1O[C@H](CO)[C@@H](O)[C@H](O)[C@H]1O)C3 [Form 4, rebaudioside A] |
| – | Very low | – | (<0.2%/60 %/60 minutes | C=C1C[C@@]23CC[C@H]4[C@@](C)(CCC[C@@]4(C)C(=O)O[C@@H]4O[C@H](CO)[C@@H](O)[C@H](O)[C@H]4O)[C@@H]2CC[C@]1(O[C@@H]1O[C@H](CO)[C@@H](O)[C@H](O[C@@H]2O[C@H](CO)[C@@H](O)[C@H](O)[C@H]2O)[C@H]1O[C@@H]1O[C@H](CO)[C@@H](O)[C@H](O)[C@H]1O)C3 [Form 1, rebaudioside A] |
| – | Intermediate | (<30%/5 %/5 minutes | – | C=C1C[C@@]23CC[C@H]4[C@@](C)(CCC[C@@]4(C)C(=O)O[C@@H]4O[C@H](CO)[C@@H](O)[C@H](O)[C@H]4O)[C@@H]2CC[C@]1(O[C@@H]1O[C@H](CO)[C@@H](O)[C@H](O[C@@H]2O[C@H](CO)[C@@H](O)[C@H](O)[C@H]2O)[C@H]1O[C@@H]1O[C@H](CO)[C@@H](O)[C@H](O)[C@H]1O)C3 [Form 2, rebaudioside A] |
| – | High | (>30%/5 %/5 minutes | – | C=C1C[C@@]23CC[C@H]4[C@@](C)(CCC[C@@]4(C)C(=O)O[C@@H]4O[C@H](CO)[C@@H](O)[C@H](O)[C@H]4O)[C@@H]2CC[C@]1(O[C@@H]1O[C@H](CO)[C@@H](O)[C@H](O[C@@H]2O[C@H](CO)[C@@H](O)[C@H](O)[C@H]2O)[C@H]1O[C@@H]1O[C@H](CO)[C@@H](O)[C@H](O)[C@H]1O)C3 [Form 3, rebaudioside A] |
